Each structure is given as a SMILES string. Active and inactive are the calls of the source. The calls are words filed in the database; no cut-off is given here.

Assay [1] can be described thus: Cytotoxicity against human T29 cells expressing wild type B-Raf assessed as cell viability after 72 hrs by MTT assay. The conditions noted are these: T29, 72 h. It is filed as functional, cell-based. (In general: Tetrazolium dyes change colour on reduction, which living cells bring about.)
A short description of assay [2]: Cytotoxicity against human F-6-8 cells expressing B-Raf V600E mutant assessed as cell viability after 72 hrs by MTT assay. In kind it is functional, cell-based.
Assay [3] in a line: Cell cycle arrest in human T29 cells assessed as increase in cell level at pre-G1 phase at 10 uM after 72 hrs by propidium iodide staining-based flow cytometric analysis. In kind it is functional. In general terms: Flow cytometry measures light scatter and fluorescence of single cells or particles in a stream.
The nature of assay [4]: Cell cycle arrest in human T29 cells assessed as decrease in cell level at S phase at 5 to 10 uM after 48 to 72 hrs by propidium iodide staining-based flow cytometric analysis. In kind it is functional.
For assay [5], the target named is Epidermal growth factor receptor (Homo sapiens) (UniProt P00533). In words: Inhibition of EGFR in human T29 cells assessed as suppression of C-Raf phosphorylation at p-21-activated protein kinase site, Ser338 after 24 hrs by Western blot analysis. It is filed as cell-based.
Assay [6] concerns the target Serine/threonine-protein kinase B-raf (Homo sapiens) (UniProt P15056). Put plainly: Inhibition of recombinant B-Raf (unknown origin) expressed in HEK293 cells using MEK1 peptide as substrate at 20 uM after 15 mins by radiometric assay in presence of [gamma-32P]ATP.
Assay [7] concerns the target Epidermal growth factor receptor (Homo sapiens) (UniProt P00533). Put plainly: Inhibition of EGFR in human T29 cells assessed as suppression of AKT phosphorylation at mTORC2 site, Ser473 after 24 hrs by Western blot analysis. It is filed as cell-based. Background: In western blotting, separated proteins are transferred to a membrane and probed.
The nature of assay [8]: Cell cycle arrest in human T29 cells assessed as increase in cell level at pre-G1 phase at 5 uM after 48 hrs by propidium iodide staining-based flow cytometric analysis. It is filed as functional.
Assay [9] relates to T29. In words: Induction of apoptosis in human T29 cells assessed as PARP cleavage at 10 uM after 24 hrs by Western blot analysis. In kind it is functional, cell-based.
The nature of assay [10]: Cell cycle arrest in human T29 cells assessed as decrease in cell level at G0/G1 phase at 5 to 10 uM after 48 to 72 hrs by propidium iodide staining-based flow cytometric analysis. In kind it is functional.
The target of assay [11] is Epidermal growth factor receptor (Homo sapiens) (UniProt P00533). Put plainly: Inhibition of EGFR autophosphorylation at Tyr1068 in human T29 cells after 24 hrs by Western blot analysis. In kind it is cell-based.
Assay [12] can be described thus: Selectivity ratio of IC50 for human F-6-8 cells expressing B-Raf V600E mutant to IC50 for human T29 cells expressing wild type B-Raf. In kind it is functional.
The target of assay [13] is Serine/threonine-protein kinase B-raf (Homo sapiens) (UniProt P15056). Put plainly: Competitive inhibition of recombinant B-Raf (unknown origin) expressed in HEK293 cells up to 100 uM after 60 to 120 mins by FRET analysis in presence of ATP. In kind it is cell-based.
A short description of assay [14]: Cell cycle arrest in human T29 cells assessed as increase in cell level at pre-G1 phase at 5 uM after 72 hrs by propidium iodide staining-based flow cytometric analysis. In kind it is functional.
Assay [15] in a line: Cell cycle arrest in human T29 cells assessed as decrease in cell level at G2/M phase at 5 to 10 uM after 48 to 72 hrs by propidium iodide staining-based flow cytometric analysis. In kind it is functional.
For assay [16], the system named is T29. Put plainly: Cytotoxicity against human T29 cells assessed as increase in membrane blebbing at 10 uM after 24 hrs by inverted microscopic analysis. It is filed as functional, cell-based.
The nature of assay [17]: Cell cycle arrest in human T29 cells assessed as increase in cell level at pre-G1 phase at 10 uM after 48 hrs by propidium iodide staining-based flow cytometric analysis. It is filed as functional.
Assay [18] deals with T29. In words: Cytotoxicity against human T29 cells assessed as increase in nuclear fragmentation at 10 uM after 24 hrs by inverted microscopic analysis. It is filed as functional, cell-based.
Assay [19] has as its target Epidermal growth factor receptor (Homo sapiens) (UniProt P00533). Put plainly: Inhibition of EGFR in human T29 cells assessed as suppression of MEK phosphorylation at Ser217/Ser221 after 24 hrs by Western blot analysis. It is filed as cell-based.
The target is the same in assay [20]. In words: Inhibition of EGFR in human T29 cells assessed as suppression of Src phosphorylation at Tyr416 after 24 hrs by Western blot analysis. In kind it is cell-based.
The test system of assay [21] is T29. In words: Cytotoxicity against human T29 cells assessed as cell detachment from culture dish at 10 uM after 24 hrs by inverted microscopic analysis. In kind it is functional, cell-based.
Assay [22] concerns the target Epidermal growth factor receptor (Homo sapiens) (UniProt P00533). Put plainly: Inhibition EGFR in human T29 cells assessed as suppression of STAT3 phosphorylation at Tyr705 after 24 hrs by Western blot analysis. In kind it is cell-based.
Assay [23] has the same target. In words: Inhibition of EGFR in human T29 cells assessed as suppression of ERK phosphorylation at Tyr204 after 24 hrs by Western blot analysis. In kind it is cell-based.
The subject of assay [24] is T29. Put plainly: Cytotoxicity against human T29 cells assessed as increase in cell shrinkage at 10 uM after 24 hrs by inverted microscopic analysis. In kind it is functional, cell-based.

Epidermal growth factor receptor (Homo sapiens), sequence (P00533 whole entry): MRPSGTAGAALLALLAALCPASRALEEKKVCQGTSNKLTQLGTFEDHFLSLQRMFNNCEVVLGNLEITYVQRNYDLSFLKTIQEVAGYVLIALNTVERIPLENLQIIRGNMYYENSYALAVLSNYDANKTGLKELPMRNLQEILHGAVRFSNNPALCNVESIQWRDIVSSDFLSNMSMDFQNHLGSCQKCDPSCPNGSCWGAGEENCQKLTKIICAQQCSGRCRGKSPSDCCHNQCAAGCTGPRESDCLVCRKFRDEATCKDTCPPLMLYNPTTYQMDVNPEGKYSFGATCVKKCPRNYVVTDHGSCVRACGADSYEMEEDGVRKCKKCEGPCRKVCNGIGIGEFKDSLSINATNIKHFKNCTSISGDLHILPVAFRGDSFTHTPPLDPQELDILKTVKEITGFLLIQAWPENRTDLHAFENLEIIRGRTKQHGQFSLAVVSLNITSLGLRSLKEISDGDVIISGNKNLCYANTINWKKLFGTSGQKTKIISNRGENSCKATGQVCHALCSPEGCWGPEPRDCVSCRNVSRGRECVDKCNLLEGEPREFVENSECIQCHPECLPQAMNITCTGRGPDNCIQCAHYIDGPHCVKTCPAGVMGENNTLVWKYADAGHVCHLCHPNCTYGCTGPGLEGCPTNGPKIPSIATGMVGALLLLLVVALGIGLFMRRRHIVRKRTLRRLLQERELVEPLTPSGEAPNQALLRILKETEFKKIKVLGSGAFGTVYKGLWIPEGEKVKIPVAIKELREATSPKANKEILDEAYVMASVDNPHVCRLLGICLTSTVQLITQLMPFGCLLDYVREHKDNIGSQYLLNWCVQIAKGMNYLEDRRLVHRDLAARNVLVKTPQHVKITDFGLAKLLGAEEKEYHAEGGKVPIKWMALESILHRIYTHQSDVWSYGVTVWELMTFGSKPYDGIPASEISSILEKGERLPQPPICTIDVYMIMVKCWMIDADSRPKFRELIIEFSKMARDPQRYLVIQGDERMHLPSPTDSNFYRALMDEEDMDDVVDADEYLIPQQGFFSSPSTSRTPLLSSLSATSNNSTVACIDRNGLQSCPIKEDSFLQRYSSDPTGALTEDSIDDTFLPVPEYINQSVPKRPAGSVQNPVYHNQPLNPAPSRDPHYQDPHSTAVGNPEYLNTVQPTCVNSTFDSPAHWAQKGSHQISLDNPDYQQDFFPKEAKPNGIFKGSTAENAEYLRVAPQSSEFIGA
Serine/threonine-protein kinase B-raf (Homo sapiens), sequence (P15056 whole entry): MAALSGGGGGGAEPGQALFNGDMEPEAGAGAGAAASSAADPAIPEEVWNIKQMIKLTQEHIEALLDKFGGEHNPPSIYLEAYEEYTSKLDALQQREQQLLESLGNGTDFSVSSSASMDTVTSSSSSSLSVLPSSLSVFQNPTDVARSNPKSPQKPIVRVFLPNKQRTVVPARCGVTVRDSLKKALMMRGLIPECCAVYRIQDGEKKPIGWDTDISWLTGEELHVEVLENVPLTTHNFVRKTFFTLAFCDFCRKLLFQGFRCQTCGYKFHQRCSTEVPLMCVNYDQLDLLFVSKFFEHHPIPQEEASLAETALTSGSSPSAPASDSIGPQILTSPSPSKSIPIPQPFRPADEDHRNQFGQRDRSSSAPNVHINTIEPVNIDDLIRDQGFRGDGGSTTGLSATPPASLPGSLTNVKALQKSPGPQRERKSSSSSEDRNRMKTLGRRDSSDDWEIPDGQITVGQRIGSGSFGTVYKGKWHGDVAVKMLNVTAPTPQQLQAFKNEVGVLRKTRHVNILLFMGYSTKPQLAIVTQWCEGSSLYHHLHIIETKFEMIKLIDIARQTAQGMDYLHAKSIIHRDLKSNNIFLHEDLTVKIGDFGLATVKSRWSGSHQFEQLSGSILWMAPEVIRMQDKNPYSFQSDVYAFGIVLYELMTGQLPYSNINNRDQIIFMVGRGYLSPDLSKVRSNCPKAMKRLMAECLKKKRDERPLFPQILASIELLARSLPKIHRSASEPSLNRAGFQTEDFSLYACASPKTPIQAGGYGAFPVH

A word on the IC50: it is the midpoint of a concentration-inhibition curve. As to `CNC(=O)c1cc(Oc2ccc(NC(=O)Nc3ccc(Cl)c(C(F)(F)F)c3)cc2)ccn1` [SORAFENIB], the IC50 came out at 0.9 µM in assay [1] and 1.3 µM in [2].

Regarding `N=C(N)Nc1ccc(Oc2cccc(NC(=N)Nc3ccc(Cl)c(C(F)(F)F)c3)c2)cc1`, the Activity came out at 38.7% in assay [3], 8.5% in [8], 22.5% in assay [14] and 20.7% in assay [17]. In addition, the values for the IC50 in [1] and in assay [2] were 0.9 µM and 2.6 µM, respectively. Further, the outcome (in assay [4]; in the assay on T29 [9]; in assay [10]; in assay [15]; in the assay on T29 [16]; in the assay on T29 [18]) was Active. Also, the result with T29 [21] and with T29 [24] was Active. In addition, the inhibition entry in assay [5], in assay [7], in [11], in assay [19], in assay [20] and in assay [22] was “Dose-dependent effect” in each case. Besides, in assay [23], the inhibition entry is “Dose-dependent effect”. In addition, the inhibition result in assay [6] was “Active”. In addition, the “Ratio IC50” value in assay [12] is reported as 2. The inhibition entry in [13] was “inactive”.

Turning to `N=C(N)Nc1cccc(Cc2ccc(NC(=N)Nc3ccc(Cl)c(C(F)(F)F)c3)cc2)c1`, the IC50 came out at 4.5 µM in assay [1] and 7.6 µM in [2].

On to `CC(=O)Nc1cccc(Nc2ccc(NC(=N)Nc3ccc(Cl)c(C(F)(F)F)c3)cc2)c1`, for which the IC50 in assay [1] came out at 4.1 µM; in [2] it was 6.6 µM.

Take `N=C(N)Nc1ccc(Oc2cccc(NC(=N)N)c2)cc1`: the IC50 in assay [1] came out at 6.5 µM; in assay [2], 9.8 µM.

Values taken from ChEMBL document CHEMBL3616403, “Probing a 3,4'-bis-guanidinium diaryl derivative as an allosteric inhibitor of the Ras pathway” (Bioorg Med Chem Lett, 2015).
